From patent US10682371B2, “Small molecule conjugates specifically activated in tumor microenvironment for targeting and use thereof” (priority 2014, dated 2020)

Experiments:
4T1 cells = experiment: BALB/C mice model for tumor metastasis (4T1, lung metastases); assay type: in vivo; details: for Inhibitory effect on tumor metastasis, in words: compared with parent drug group and control group; for Inhibitory rate on metastasis: day 27; for Inhibitory rate on metastasis / Number of metastasized tumor: IV once every three days for 4 times, E1-E4 15 mg/kg, mitomycin 1 mg/kg; for Number of metastasized tumor: lung metastases counted on day 27
Procedure, shortened: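 Read-out: lung metastasis count under anatomical microscope after Bouin's staining, day 27. Treatment (IV every three days ×4, saline for controls) started after surgical removal of the ~1.5 cm subcutaneous tumor grown from 10^6 4T1 cells (passage ≤15) in BALB/C mice.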

[1] = system: Human fibrosarcoma HT-1080 tumor tissue homogenate; assay type: biochemical; details: Human fibrosarcoma HT-1080; 37° C., 1 mg/ml, 100 μg acidized homogenate
Procedure, shortened: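 Homogenized tissue (100 μg) is acidified to pH6.0. Test compound is then added at 1 mg/ml, and the mixture is held at 37° C so that the proteases present can activate it.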

BALB/C mice = experiment: Maximum tolerated dose (MTD) / acute toxicity by single intravenous injection; details: for Mortality rate (%) / Number of dead animal: 10 BALB/C mice; for Number of dead animal: observed 17 days; for Behaviors and death observed: BALB/C mice receiving 90 mg/kg injection
HT1080 cells = experiment: Tumor treatment in nude mice, HT1080 model (Example 61); assay type: in vivo; details: for Size of tumor (mm^3) Day 13 / inhibitory rate on tumor Day 13 / Size of tumor (mm^3) Day 26 / inhibitory rate on tumor (Day 26): HT1080 in nude mice, IV once weekly for four weeks, E1-E4 15 mg/kg, mitomycin 2 mg/kg; for Inhibition on tumor growth, in words: HT1080, compared with mitomycin group and control group
Procedure: 1) HT1080 cells were purchased from American type culture collection (ATCC) and identified according the specification provided by ATCC. Cells were cultivated in DMEM culture solution containing 10% fetal bovine serum at 37° C. and 5% CO2. The cells were passaged for every three days and cells within the 15th passage were used.
2) Production of tumor. 5×10^6 HT1080 cells were subcutaneously injected to the back of the nude mice. Mice were randomly grouped after the tumor reached at least 100 mm^3. Then treatment began and the day on which the treatment began was day 1.
[…]. The control group was administered by physiological saline. Drugs were administered once weekly for four weeks.

macrophage = experiment: Macrophage precursor antigen (F4/80) positive cells in CD45 positive cells of scar/CNV tissue, flow cytometry; assay type: in vivo, C57 mice; details: 50 mW laser, 48 hours after treatment
Procedure: Production and treatment of scar. […] Two weeks later, eye tissues were taken from 4 animals of each group for immunohistochemical (HE) staining. For another 4 animals, they were subjected to fixed irradiation through photocoagulation by 50 mW laser and then to treatment. 48 hours later, their eye tissues were taken, homogenated, filtered to isolate individual cells in the scar and choroidal neovascularization (CNV) tissues. The cells were washed by buffer twice and stained by biotin-conjugated anti-F4/80 (biotin-labeled precursor cell antigen from macrophage) and FITC-conjugated anti-CD45 (isothiocyanate fluorescein labeled leucocyte common antigen) at ambient temperature for 1 hour. Then the cells were washed by PBS containing 1% fetal bovine serum twice and then analyzed for the ratio of the macrophage precursor antigen positive cells in the leucocyte common antigen (CD45) positive cells by flow cytometry.

SMILES | Inhibitory effect on tumor metastasis, in words (4T1 cells) | Inhibitory rate on metastasis (4T1 cells) [%] | Number of metastasized tumor (4T1 cells) | Activation ratio (%) in homogenates from different tumor tissues [1] [%] | Mortality rate (%) (BALB/C mice; 50 mg/kg single IV injection) | Number of dead animal (BALB/C mice; 50 mg/kg single IV injection) | Mortality rate (%) (BALB/C mice; 70 mg/kg single IV injection) | Number of dead animal (BALB/C mice; 70 mg/kg single IV injection) | Mortality rate (%) (BALB/C mice; 90 mg/kg single IV injection) | Number of dead animal (BALB/C mice; 90 mg/kg single IV injection) | Mortality rate (%) (BALB/C mice; 110 mg/kg single IV injection) | Number of dead animal (BALB/C mice; 110 mg/kg single IV injection) | Behaviors and death observed (BALB/C mice) | Size of tumor (mm^3) Day 13 (HT1080 cells) [mm^3] | inhibitory rate on tumor Day 13 (HT1080 cells) [%] | Size of tumor (mm^3) Day 26 (HT1080 cells) [mm^3] | inhibitory rate on tumor (Day 26) (HT1080 cells) [%] | Inhibition on tumor growth, in words (HT1080 cells) | F4/80+ cells among CD45+ cells (%) (macrophage)
COCCOCC(=O)N[C@H](C)C(=O)N[C@H](C)C(=O)N[C@H](CC(N)=O)C(=O)Nc1ccc(COC(=O)N2[C@@H]3CN4C5=C(C(=O)C(N)=C(C)C5=O)[C@H](COC(N)=O)[C@]4(OC)[C@@H]32)cc1 [Compound E1, 2-(2-methoxyethoxy) acetyl-L-Ala-L-Ala-L-Asn-4-amino benzyl mitomycin] | greatly improved | 99.2 | 2 ± 3 | 83.6 | 0 | 0 | 0 | 0 | 0 | 0 | 10 | 1 | no pilo-erection, hair tousle and lackluster, lethargy, stoop, irritable reaction and death | 438.15 ± 47.96 | 51.9 | 331.57 ± 114.74 | 78.9 | greatly improved | 7.1 ± 1.4
COCCOCCOCCOCCOCCOCC(=O)N[C@H](C)C(=O)N[C@H](C)C(=O)N[C@H](CC(N)=O)C(=O)Nc1ccc(COC(=O)N2[C@H]3[C@@H]2CN2C4=C(C(=O)C(N)=C(C)C4=O)[C@H](COC(N)=O)[C@]32OC)cc1 [Compound E2] | greatly improved | 94.1 | 8 ± 7 | 85.7 | 0 | 0 | 0 | 0 | 0 | 0 | 10 | 1 | no pilo-erection, hair tousle and lackluster, lethargy, stoop, irritable reaction and death | 378.11 ± 68.46 | 58.5 | 137.60 ± 156.42 | 91.3 | greatly improved | 7.7 ± 1.7
